According to patent US20230093099A1, “COMPOUNDS AND METHODS OF TREATING CANCERS” (CULLGEN (SHANGHAI), INC., priority 2019, published 2023):

System: RS4;11 cells
Test: Cell viability assay (CellTiter-Glo) in RS4;11 cells
Format: cell-based
Conditions: Homo sapiens, 72 h; RS4;11 ALL cells treated for three days; read-out: cell viability inhibition IC50
How it was run: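 Three-day compound treatment of RS4;11 ALL cells (5000/well, 3-fold dilution series of 8 or 12 points), with IC50 from a nonlinear least-squares fit to CellTiter-Glo viability data.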

IC50 [nM]	Structure (SMILES)
< 100	Cc1cnc(Nc2ccc(N3CCN(C(=O)CNc4ccc5c(c4)C(=O)N(C4CCC(=O)NC4=O)C5=O)CC3)cc2)nc1Nc1cccc(S(=O)(=O)NC(C)(C)C)c1 (stereo not shown) [JA-225, N-(tert-butyl)-3-((2-((4-(4-((2-(2,6-dioxopiperidin-3-yl)-1,3-dioxoisoindolin-5-yl)glycyl)piperazin-1-yl)phenyl)amino)-5-methylpyrimidin-4-yl)amino)benzenesulfonamide]

Same assay, conditions: Homo sapiens, 72 h; RS4;11 cells; cell viability, 3 days, CellTiter-Glo; read-out: IC50

IC50 [nM]	Structure (SMILES)
562	O=C1CCC(N2Cc3cc(CCCCCCC(=O)N4CCC(n5cc(-c6cnc7cccc(-c8cc(F)c(CN9CCOCC9)c(F)c8)c7n6)cn5)CC4)ccc3C2=O)C(=O)N1 (stereo not shown) [JA-270, 3-(5-(7-(4-(4-(8-(3,5-Difluoro-4-(morpholinomethyl)phenyl)quinoxalin-2-yl)-1H-pyrazol-1-yl)piperidin-1-yl)-7-oxoheptyl)-1-oxoisoindolin-2-yl)piperidine-2,6-dione]
> 10000	Cc1ncsc1-c1ccc(CNC(=O)[C@@H]2C[C@@H](O)CN2C(=O)[C@@H](NC(=O)CCOCCOCCOCCNC(=O)CN2CCN(c3ccc(Nc4nc5cccc(-c6ccc(S(C)(=O)=O)cc6)n5n4)cc3)CC2)C(C)(C)C)cc1 [JA-137, (2S,4R)-1-((S)-17-(tert-Butyl)-1-(4-(4-((5-(4-(methylsulfonyl)phenyl)-[1,2,4]triazolo[1,5-a]pyridin-2-yl)amino)phenyl)piperazin-1-yl)-2,15-dioxo-6,9,12-trioxa-3,16-diazaoctadecan-18-oyl)-4-hydroxy-N-(4-(4-methylthiazol-5-yl)benzyl)pyrrolidine-2-carboxamide]
> 10000	Cc1ncsc1-c1ccc(CNC(=O)[C@@H]2C[C@@H](O)CN2C(=O)[C@@H](NC(=O)CCOCCNC(=O)CN2CCN(c3ccc(Nc4nc5cccc(-c6ccc(S(C)(=O)=O)cc6)n5n4)cc3)CC2)C(C)(C)C)cc1 [JA-136, (2S,4R)-1-((S)-3,3-Dimethyl-2-(3-(2-(2-(4-(4-((5-(4-(methylsulfonyl)phenyl)-[1,2,4]triazolo[1,5-a]pyridin-2-yl)amino)phenyl)piperazin-1-yl)acetamido)ethoxy)propanamido)butanoyl)-4-hydroxy-N-(4-(4-methylthiazol-5-yl)benzyl)pyrrolidine-2-carboxamide]
1350	O=C1CCC(N2C(=O)c3ccc(CCCCCCCN4CCC(n5cc(-c6cnc7cccc(-c8cc(F)c(CN9CCOCC9)c(F)c8)c7n6)cn5)CC4)cc3C2=O)C(=O)N1 (stereo not shown) [JA-265, 5-(7-(4-(4-(8-(3,5-Difluoro-4-(morpholinomethyl)phenyl)quinoxalin-2-yl)-1H-pyrazol-1-yl)piperidin-1-yl)heptyl)-2-(2,6-dioxopiperidin-3-yl)isoindoline-1,3-dione]
> 10000	O=C1CCC(N2C(=O)c3ccc(NCCOCCOCCC(=O)N4CCC(n5cc(-c6cnc7cccc(-c8cc(F)c(CN9CCOCC9)c(F)c8)c7n6)cn5)CC4)cc3C2=O)C(=O)N1 (stereo not shown) [JA-183, 5-((2-(2-(3-(4-(4-(8-(3,5-Difluoro-4-(morpholinomethyl)phenyl)quinoxalin-2-yl)-1H-pyrazol-1-yl)piperidin-1-yl)-3-oxopropoxy)ethoxy)ethyl)amino)-2-(2,6-dioxopiperidin-3-yl)isoindoline-1,3-dione]
743	Cc1cnc(Nc2ccc(N3CCN(CC(=O)NCCOCCOCCOCCNc4ccc5c(c4)C(=O)N(C4CCC(=O)NC4=O)C5=O)CC3)cc2)nc1Nc1cccc(S(=O)(=O)NC(C)(C)C)c1 (stereo not shown) [JA-239, 2-(4-(4-((4-((3-(N-(tert-butyl)sulfamoyl)phenyl)amino)-5-methylpyrimidin-2-yl)amino)phenyl)piperazin-1-yl)-N-(2-(2-(2-(2-((2-(2,6-dioxopiperidin-3-yl)-1,3-dioxoisoindolin-5-yl)amino)ethoxy)ethoxy)ethoxy)ethyl)acetamide]
229	Cc1cnc(Nc2ccc(N3CCN(CC(=O)NCCCCCCCNc4ccc5c(c4)C(=O)N(C4CCC(=O)NC4=O)C5=O)CC3)cc2)nc1Nc1cccc(S(=O)(=O)NC(C)(C)C)c1 (stereo not shown) [JA-246, 2-(4-(4-((4-((3-(N-(tert-butyl)sulfamoyl)phenyl)amino)-5-methylpyrimidin-2-yl)amino)phenyl)piperazin-1-yl)-N-(7-((2-(2,6-dioxopiperidin-3-yl)-1,3-dioxoisoindolin-5-yl)amino)heptyl)acetamide]
2520	Cc1ncsc1-c1ccc(CNC(=O)[C@@H]2C[C@@H](O)CN2C(=O)[C@@H](NC(=O)CCOCCC(=O)N2CCC(n3cc(-c4cnc5cccc(-c6cc(F)c(CN7CCOCC7)c(F)c6)c5n4)cn3)CC2)C(C)(C)C)cc1 [JA-058, (2S,4R)-1-[(2S)-2-[3-[3-[4-[4-[8-[3,5-Difluoro-4-(morpholinomethyl)phenyl]quinoxalin-2-yl]pyrazol-1-yl]-1-piperidyl]-3-oxo-propoxy]propanoylamino]-3,3-dimethyl-butanoyl]-4-hydroxy-N-[[4-(4-methylthiazol-5-yl)phenyl]methyl]pyrrolidine-2-carboxamide]
> 10000	CS(=O)(=O)c1ccc(-c2cccc3nc(Nc4ccc(N5CCN(CC(=O)NCCOCCNc6cccc7c6C(=O)N(C6CCC(=O)NC6=O)C7=O)CC5)cc4)nn23)cc1 (stereo not shown) [JA-110, N-(2-(2-((2-(2,6-Dioxopiperidin-3-yl)-1,3-dioxoisoindolin-4-yl)amino)ethoxy)ethyl)-2-(4-(4-((5-(4-(methylsulfonyl)phenyl)-[1,2,4]triazolo[1,5-a]pyridin-2-yl)amino)phenyl)piperazin-1-yl)acetamide]
848	Cc1cnc(Nc2ccc(N3CCN(C(=O)CCOCCOCCOCCOCCNc4ccc5c(c4)C(=O)N(C4CCC(=O)NC4=O)C5=O)CC3)cc2)nc1Nc1cccc(S(=O)(=O)NC(C)(C)C)c1 (stereo not shown) [JA-235, N-(tert-butyl)-3-((2-((4-(4-(1-((2-(2,6-dioxopiperidin-3-yl)-1,3-dioxoisoindolin-5-yl)amino)-3,6,9,12-tetraoxapentadecan-15-oyl)piperazin-1-yl)phenyl)amino)-5-methylpyrimidin-4-yl)amino)benzenesulfonamide]
> 10000	Cc1cnc(Nc2ccc(N3CCN(C(=O)CCOCCOCCC(=O)N[C@H](C(=O)N4C[C@H](O)C[C@H]4C(=O)NCc4ccc(-c5scnc5C)cc4)C(C)(C)C)CC3)cc2)nc1Nc1cccc(S(=O)(=O)NC(C)(C)C)c1 [JA-033, (2S,4R)-1-((S)-2-(3-(2-(3-(4-(4-((4-((3-(N-(tert-Butyl)sulfamoyl)phenyl)amino)-5-methylpyrimidin-2-yl)amino)phenyl)piperazin-1-yl)-3-oxopropoxy)ethoxy)propanamido)-3,3-dimethylbutanoyl)-4-hydroxy-N-(4-(4-methylthiazol-5-yl)benzyl)pyrrolidine-2-carboxamide]
2640	Cc1cnc(Nc2ccc(N3CCN(C(=O)CCOCCOCCOCCOCCOCCNc4ccc5c(c4)C(=O)N(C4CCC(=O)NC4=O)C5=O)CC3)cc2)nc1Nc1cccc(S(=O)(=O)NC(C)(C)C)c1 (stereo not shown) [JA-236, N-(tert-butyl)-3-((2-((4-(4-(1-((2-(2,6-dioxopiperidin-3-yl)-1,3-dioxoisoindolin-5-yl)amino)-3,6,9,12,15-pentaoxaoctadecan-18-oyl)piperazin-1-yl)phenyl)amino)-5-methylpyrimidin-4-yl)amino)benzenesulfonamide]
> 10000	Cc1ncsc1-c1ccc(CNC(=O)[C@@H]2C[C@@H](O)CN2C(=O)[C@@H](NC(=O)CCOCCOCCOCCNC(=O)CN2CCC(n3cc(-c4cnc5cccc(-c6cc(F)c(CN7CCOCC7)c(F)c6)c5n4)cn3)CC2)C(C)(C)C)cc1 [JA-151, (2S,4R)-1-((S)-17-(tert-Butyl)-1-(4-(4-(8-(3,5-difluoro-4-(morpholinomethyl)phenyl)quinoxalin-2-yl)-1H-pyrazol-1-yl)piperidin-1-yl)-2,15-dioxo-6,9,12-trioxa-3,16-diazaoctadecan-18-oyl)-4-hydroxy-N-(4-(4-methylthiazol-5-yl)benzyl)pyrrolidine-2-carboxamide]
65.8	Cc1cnc(Nc2ccc(N3CCN(C(=O)CNc4ccc5c(c4)C(=O)N(C4CCC(=O)NC4=O)C5=O)CC3)cc2)nc1Nc1cccc(S(=O)(=O)NC(C)(C)C)c1 (stereo not shown) [JA-225, N-(tert-butyl)-3-((2-((4-(4-((2-(2,6-dioxopiperidin-3-yl)-1,3-dioxoisoindolin-5-yl)glycyl)piperazin-1-yl)phenyl)amino)-5-methylpyrimidin-4-yl)amino)benzenesulfonamide]
1590	Cc1cnc(Nc2ccc(N3CCN(C(=O)CCOCCOCCOCCNc4ccc5c(c4)C(=O)N(C4CCC(=O)NC4=O)C5=O)CC3)cc2)nc1Nc1cccc(S(=O)(=O)NC(C)(C)C)c1 (stereo not shown) [JA-234, N-(tert-butyl)-3-((2-((4-(4-(3-(2-(2-(2-((2-(2,6-dioxopiperidin-3-yl)-1,3-dioxoisoindolin-5-yl)amino)ethoxy)ethoxy)ethoxy)propanoyl)piperazin-1-yl)phenyl)amino)-5-methylpyrimidin-4-yl)amino)benzenesulfonamide]
5440	O=C1CCC(N2C(=O)c3cccc(NCC(=O)N4CCC(n5cc(-c6cnc7cccc(-c8cc(F)c(CN9CCOCC9)c(F)c8)c7n6)cn5)CC4)c3C2=O)C(=O)N1 (stereo not shown) [JA-002, 4-[[2-[4-[4-[8-[3,5-Difluoro-4-(morpholinomethyl)phenyl]quinoxalin-2-yl]pyrazol-1-yl]-1-piperidyl]-2-oxo-ethyl]amino]-2-(2,6-dioxo-3-piperidyl)isoindoline-1,3-dione]
> 10000	O=C(CN1CCC(n2cc(-c3cnc4cccc(-c5cc(F)c(CN6CCOCC6)c(F)c5)c4n3)cn2)CC1)NCCOCCOCCOCCNc1cccc2c1C(=O)N(C1CCC(=O)NC1=O)C2=O (stereo not shown) [JA-141, 2-[4-[4-[8-[3,5-Difluoro-4-(morpholinomethyl)phenyl]quinoxalin-2-yl]pyrazol-1-yl]-1-piperidyl]-N-[2-[2-[2-[2-[[2-(2,6-dioxo-3-piperidyl)-1,3-dioxo-isoindolin-4-yl]amino]ethoxy]ethoxy]ethoxy]ethyl]acetamide]

Structure (SMILES)	IC50 [nM]
Cc1ncsc1-c1ccc(CNC(=O)[C@@H]2C[C@@H](O)CN2C(=O)[C@@H](NC(=O)CNC(=O)CN2CCN(c3ccc(Nc4nc5cccc(-c6ccc(S(C)(=O)=O)cc6)n5n4)cc3)CC2)C(C)(C)C)cc1 [JA-126, (2S,4R)-1-((S)-3,3-Dimethyl-2-(2-(2-(4-(4-((5-(4-(methylsulfonyl)phenyl)-[1,2,4]triazolo[1,5-a]pyridin-2-yl)amino)phenyl)piperazin-1-yl)acetamido)acetamido)butanoyl)-4-hydroxy-N-(4-(4-methylthiazol-5-yl)benzyl)pyrrolidine-2-carboxamide]	> 10000
